Results published in patent publication US20130116219A1, “ANTIMICROBIAL CARBOLINE COMPOUNDS” (ALCON RESEARCH, LTD., priority 2011, published 2013).

What follows are compounds tested on Ad5 (assay: Ad5 genome replication assay (cell-based QPCR) in A549 cells). Settings: Human adenovirus sp., A549, 72 h, read-out: Ad5 qPCR EC50 (μM).
Method: Compounds of the present invention were tested for potency against Ad5 in an Ad5 genome replication assay, a cell-based QPCR assay of Ad5 genome replication in A549 cells, a human lung carcinoma cell line. Serotype of human Ad5, used in this replication assay can also replicate in a NZW rabbit model of adenoviral ocular keratitis.
EC50 values (μM) for inhibition of adenoviral replication were determined by QPCR. Briefly, 10,000 cultured A549 cells were inoculated with 25,000 pfu/well for 3 hrs in 2% FBS F12-K A549 culture media. Following inoculation, A549 cells were treated with log unit dilutions of compound of Formula I (˜10 μM thru˜10 pM) in 10% FBS F12-K culture media with 0.3% DMSO for an additional 3 days. Cell viability was assessed with Alamar Blue (10 μl/well for 2 hrs; fluorescence Ex353; Em595 nm). Plates were washed 3 times with 125 μl PBS, cell lysates were prepared for QPCR analysis using Cells to SNP kit (Life Technologies). Ad5 genome levels per cell were determined with RNaseP and Ad5 hexon Taqman Assays (Life Technologies). EC50, the concentration that inhibited Ad5 genome replication formation by 50%, was estimated from plots of Ad5 genomes/cell vs. compound concentration.
For CC(C)C[C@H]1c2[nH]c3ccc(Br)cc3c2CCN1C(=O)CNC1CC1 [Compound 98, (S)-1-(6-bromo-1-isobutyl-3,4-dihydro-1H-pyrido[3,4-b]indol-2(9H)-yl)-2-(cyclopropylamino)ethanone], the EC50 was < 0.1 µM. CC(C)CC1c2[nH]c3ccc(Cl)cc3c2CCN1C(=O)CN(C)c1ccccc1 (stereo not drawn) [Compound 74] showed an EC50 of 0.1 to 1 µM. For CC(C)CC1c2[nH]c3ccc(Cl)cc3c2CCN1C(=O)COC1CCN(C2CC2)CC1 (stereo not drawn) [Compound 69], the EC50 was > 1 µM. CC(C)CC1c2[nH]c3ccc(Cl)cc3c2CCN1C(=O)CCN1CCC(C)CC1 (stereo not drawn) [Compound 15] was tested, and the EC50 was > 1 µM. CCCCN1CC(F)(C(=O)N2CCc3c([nH]c4ccc(Cl)cc34)C2CC(C)C)C1 (stereo not drawn) [Compound 106] was tested, and the EC50 was < 0.1 µM. In the case of O=C(CCC1CCCCC1)N1CCc2c([nH]c3ccc(Cl)cc23)C1CN1CCCCC1 (stereo not drawn) [Compound 80], the EC50 is reported as > 1 µM. CC(C)CC1c2[nH]c3ccc(Cl)cc3c2CCN1CCCc1ccccc1 (stereo not drawn) [Compound 109] showed an EC50 of 0.1 to 1 µM. Work on CC(C)CC1c2[nH]c3ccc(Cl)cc3c2CCN1C(=O)OCCN1CCC(F)(F)C1 (stereo not drawn) [Compound 18] yielded an EC50 of 0.1 to 1 µM. With CC(C)CC1c2[nH]c3ccc(Cl)cc3c2CCN1C1CC1 (stereo not drawn) [Compound 95] the EC50 was < 0.1 µM. With CC(C)C[C@H]1c2[nH]c3ccc(Cl)cc3c2CCN1C(=O)CCNC1CCC(F)(F)CC1 [Compound 34] the EC50 was > 1 µM. O=C(CCN1CCC(C(F)F)CC1)N1CCc2c([nH]c3ccc(Cl)cc23)C1CC1CCCC1 (stereo not drawn) [Compound 31] showed an EC50 of 0.1 to 1 µM. CC(C)CC1c2[nH]c3ccc(Cl)cc3c2CCN1C(=O)CCC1CCN(CC(F)F)CC1 (stereo not drawn) [Compound 46] gave an EC50 of 0.1 to 1 µM. With CC(C)CC1c2[nH]c3ccc(Cl)cc3c2CCN1C(=O)CNC1CCCCC1 (stereo not drawn) [Compound 40] the EC50 was > 1 µM. CC(C)CC1c2[nH]c3ccc(Cl)cc3c2CCN1C(=O)OCCN1CC(F)(F)C1 (stereo not drawn) [Compound 26] showed an EC50 of 0.1 to 1 µM. Compound CC(C)CC1c2[nH]c3ccc(Cl)cc3c2CCN1c1nc(CN2CCC(F)(F)CC2)co1 (stereo not drawn) [Compound 56] has an EC50 of 0.1 to 1 µM. With CC(C)CC1c2[nH]c3ccc(Cl)cc3c2CCN1C(=O)CC(O)c1ccccc1 (stereo not drawn) [Compound 48] the EC50 was 0.1 to 1 µM. CC(C)C[C@H]1c2[nH]c3ccc(Cl)cc3c2CCN1C(=O)CCN1CCC(F)CC1 [Compound 28, (S)-1-(6-chloro-1-isobutyl-3,4-dihydro-1H-pyrido[3,4-b]indol-2(9H)-yl)-3-(4-fluoropiperidin-1-yl)propan-1-one] showed an EC50 of 0.1 to 1 µM. In the case of CC(C)CC1c2[nH]c3ccc(Cl)cc3c2CCN1C(=O)C1(F)CN(CC(C)C)C1 (stereo not drawn) [Compound 103, (6-chloro-1-isobutyl-3,4-dihydro-1H-pyrido[3,4-b]indol-2(9H)-yl)(3-fluoro-1-isobutylazetidin-3-yl)methanone], the EC50 is reported as < 0.1 µM. With CC(C)CC1c2[nH]c3ccc(Cl)cc3c2CCN1c1nc(CN2CCC(F)CC2)co1 (stereo not drawn) [Compound 57] the EC50 was 0.1 to 1 µM. CC(C)CC1c2[nH]c3ccc(Cl)cc3c2CCN1C(=O)OCCN1CCC(F)CC1 (stereo not drawn) [Compound 23] was tested, and the EC50 was > 1 µM. Work on O=C(CCN1CCC(F)(F)CC1)N1CCc2c([nH]c3ccc(Cl)cc23)C1CC1CCCC1 (stereo not drawn) [Compound 9] yielded an EC50 of 0.1 to 1 µM. With CC(C)CC1c2[nH]c3ccc(Cl)cc3c2CCN1C(=O)C1CN(c2ncccn2)C1 (stereo not drawn) [Compound 81] the EC50 was 0.1 to 1 µM. Work on CC(C)C[C@H]1c2[nH]c3ccc(Cl)cc3c2CCN1C(=O)CCN1CCC(C(F)F)CC1 [Compound 29, (S)-1-(6-chloro-1-isobutyl-3,4-dihydro-1H-pyrido[3,4-b]indol-2(9H)-yl)-3-(4-(difluoromethyl)piperidin-1-yl)propan-1-one] yielded an EC50 of 0.1 to 1 µM. In the case of O=C(CCC1CCCCC1)N1CCc2c([nH]c3ccc(Cl)cc23)C1CN1CCC(F)(F)CC1 (stereo not drawn) [Compound 78, 1-(6-chloro-1-1((4,4-difluoropiperidin-1-yl)methyl)-3,4-dihydro-1H-pyrido[3,4-b]indol-2(9H)-yl)-3-cyclohexylpropan-1-one], the EC50 is reported as 0.1 to 1 µM. For CC(C)CC1c2[nH]c3ccc(Cl)cc3c2CCN1C(=O)CCN1CCC(CF)CC1 (stereo not drawn) [Compound 16], the EC50 was 0.1 to 1 µM. O=C(CCN1CCC(F)CC1)N1CCc2c([nH]c3ccc(Cl)cc23)C1CC1CCCC1 (stereo not drawn) [Compound 27] was tested, and the EC50 was 0.1 to 1 µM. CC(C)CC1c2[nH]c3ccc(Cl)cc3c2CCN1Cc1ccco1 (stereo not drawn) [Compound 88] showed an EC50 of 0.1 to 1 µM. CC(C)CC1c2[nH]c3ccc(Cl)cc3c2CCN1C(=O)C(C)CN1CCC(F)(F)CC1 (stereo not drawn) [Compound 37] was tested, and the EC50 was 0.1 to 1 µM. In the case of CC(C)CC1c2[nH]c3ccc(Cl)cc3c2CCN1C(=O)CN1CCC(C(F)(F)F)CC1 (stereo not drawn) [Compound 8], the EC50 is reported as 0.1 to 1 µM. In the case of CC(C)CC1c2[nH]c3ccc(Cl)cc3c2CCN1C(=O)CC1CCCO1 (stereo not drawn) [Compound 42], the EC50 is reported as 0.1 to 1 µM. With CC(C)CC1c2[nH]c3ccc(Cl)cc3c2CCN1C(=O)CNc1ccccc1 (stereo not drawn) [Compound 70] the EC50 was < 0.1 µM. CC(C)C[C@H]1c2[nH]c3ccc(Cl)cc3c2CCN1C(=O)CCN1CCC(C(F)(F)F)CC1 [Compound 20, (S)-1-(6-chloro-1-isobutyl-3,4-dihydro-1H-pyrido[3,4-b]indol-2(9H)-yl)-3-(4-(trifluoromethyl)piperidin-1-yl)propan-1-one] was tested, and the EC50 was 0.1 to 1 µM. CC(C)CC1c2[nH]c3ccc(Cl)cc3c2CCN1C(=O)OCCN1CCC(C(F)(F)F)C1 (stereo not drawn) [Compound 17] gave an EC50 of 0.1 to 1 µM. With CC(C)(C)CC1c2[nH]c3ccc(Cl)cc3c2CCN1C(=O)CCN1CCC(F)CC1 (stereo not drawn) [Compound 30] the EC50 was > 1 µM. CC(C)CC1c2[nH]c3ccc(Cl)cc3c2CCN1C(=O)CCN1CCCC(F)(F)C1 (stereo not drawn) [Compound 13] showed an EC50 of 0.1 to 1 µM. With CC(C)CC1c2[nH]c3ccc(Cl)cc3c2CCN1C(=O)CN1CC[C@H](F)C1 (stereo partly drawn) [Compound 49] the EC50 was > 1 µM. In the case of CC(C)CC1c2[nH]c3ccc(Cl)cc3c2CCN1C(=O)Cc1cccnc1 (stereo not drawn) [Compound 60], the EC50 is reported as > 1 µM. In the case of CC(C)C[C@H]1c2[nH]c3ccc(Cl)cc3c2CCN1C(=O)CNC1CC(F)(F)C1 [Compound 104, (S)-1-(6-chloro-1-isobutyl-3,4-dihydro-1H-pyrido[3,4-b]indol-2(9H)-yl)-2-((3,3-difluorocyclobutyl)amino)ethanone], the EC50 is reported as < 0.1 µM. In the case of CC(C)CC1c2[nH]c3ccc(Cl)cc3c2CCN1C(=O)CNCCN1CCC(F)(F)CC1 (stereo not drawn) [Compound 86], the EC50 is reported as > 1 µM. CC(C)CC1c2[nH]c3ccc(Cl)cc3c2CCN1C(=O)c1cccnc1 (stereo not drawn) [Compound 64] showed an EC50 of 0.1 to 1 µM. CC(C)CC1c2[nH]c3ccc(Cl)cc3c2CCN1C(=O)CCN1CCCCC1 (stereo not drawn) [Compound 3] was tested, and the EC50 was > 1 µM. With CC(C)C[C@H]1c2[nH]c3ccc(Cl)cc3c2CCN1C(=O)CC1CCN(CC(F)F)CC1 [Compound 100] the EC50 was < 0.1 µM. With COc1ccc2[nH]c3c(c2c1)CCN(C(=O)CCN1CCC(F)(F)CC1)C3CC(C)C (stereo not drawn) [Compound 51] the EC50 was 0.1 to 1 µM. Work on CC(C)C[C@H]1c2[nH]c3ccc(Cl)cc3c2CCN1CCN1CCC(F)(F)CC1 [Compound 110, (S)-6-chloro-2-(2-(4,4-difluoropiperidin-1-yl)ethyl)-1-isobutyl-2,3,4,9-tetrahydro-1H-pyrido[3,4-b]indole] yielded an EC50 of 0.1 to 1 µM. For CC(C)CC1c2[nH]c3ccc(Cl)cc3c2CCN1C(=O)OCCN1CCC(C(F)F)CC1 (stereo not drawn) [Compound 22], the EC50 was > 1 µM. Work on CC(C)C[C@H]1c2[nH]c3ccc(Cl)cc3c2CCN1C(=O)OCCN1CC[C@H](F)C1 [Compound 38] yielded an EC50 of 0.1 to 1 µM. In the case of CC(C)CC1c2[nH]c3ccc(Cl)cc3c2CCN1C(=O)C1CCN(c2ncccn2)CC1 (stereo not drawn) [Compound 67], the EC50 is reported as 0.1 to 1 µM. In the case of CC(C)CC1c2[nH]c3ccc(Cl)cc3c2CCN1C(=O)CN1CC(F)(F)C1 (stereo not drawn) [Compound 85, 1-(6-chloro-1-isobutyl-3,4-dihydro-1H-pyrido[3,4-b]indol-2(9H)-yl)-2-(3,3-difluoroazetidin-1-yl)ethanone], the EC50 is reported as < 0.1 µM. For CC(C)CC1c2[nH]c3ccc(Cl)cc3c2CCN1C(=O)C(C)(C)CN1CCC(F)(F)CC1 (stereo not drawn) [Compound 33], the EC50 was > 1 µM. CC(C)CC1c2[nH]c3ccc(Cl)cc3c2CCN1CC(=O)NC1CCCCC1 (stereo not drawn) [Compound 79] showed an EC50 of 0.1 to 1 µM. CC(C)CC1c2[nH]c3ccc(Cl)cc3c2CCN1C(=O)CCN1CCC(F)(F)C1 (stereo not drawn) [Compound 11] was tested, and the EC50 was 0.1 to 1 µM. CC(C)CC1c2[nH]c3ccc(Cl)cc3c2CCN1CC1CC1 (stereo not drawn) [Compound 96] gave an EC50 of 0.1 to 1 µM. Cc1nnc(CCC(=O)N2CCc3c([nH]c4ccc(Cl)cc34)C2CC(C)C)o1 (stereo not drawn) [Compound 82] gave an EC50 of 0.1 to 1 µM. In the case of CC(C)CC1c2[nH]c3ccc(Cl)cc3c2CCN1C(=O)CNCc1ccco1 (stereo not drawn) [Compound 89], the EC50 is reported as > 1 µM. Compound CC(C)(C)CC1c2[nH]c3ccc(Cl)cc3c2CCN1C(=O)CCN1CCC(F)(F)CC1 (stereo not drawn) [Compound 10] has an EC50 of 0.1 to 1 µM. In the case of CC(C)CC1c2[nH]c3ccc(Cl)cc3c2CCN1C(=O)CN1CCOCC1 (stereo not drawn) [Compound 55], the EC50 is reported as > 1 µM. CC(C)CC1c2[nH]c3ccc(Cl)cc3c2CCN1C(=O)COc1ccccc1 (stereo not drawn) [Compound 71] was tested, and the EC50 was 0.1 to 1 µM. In the case of CC(C)CC1c2[nH]c3ccc(Cl)cc3c2CCN1C(=O)CCN1CCCCC12CC2 (stereo not drawn) [Compound 44], the EC50 is reported as 0.1 to 1 µM. In the case of CC(C)CC1c2[nH]c3ccc(Cl)cc3c2CCN1C(=O)CCCN1CCC(F)(F)CC1 (stereo not drawn) [Compound 12], the EC50 is reported as > 1 µM. For CC(C)CC1c2[nH]c3ccc(Cl)cc3c2CCN1C(=O)CCc1ccco1 (stereo not drawn) [Compound 58], the EC50 was < 0.1 µM. With CC(C)C[C@H]1c2[nH]c3ccc(Cl)cc3c2CCN1C(=O)CNCCC(F)(F)F [Compound 108, (S)-1-(6-chloro-1-isobutyl-3,4-dihydro-1H-pyrido[3,4-b]indol-2(9H)-yl)-2-(3,3,3-trifluoropropylamino)ethanone] the EC50 was < 0.1 µM. With CC(C)CC1c2[nH]c3ccc(Cl)cc3c2CCN1C(=O)C1CN(CC(C)C)C1 (stereo not drawn) [Compound 39] the EC50 was > 1 µM. With CC(C)CC1c2[nH]c3ccc(Cl)cc3c2CCN1C(=O)Cc1ccncc1 (stereo not drawn) [Compound 61] the EC50 was > 1 µM.
